Tests used:
[1] = molecular target: T1, 5-hydroxytryptamine receptor 2A (Homo sapiens, UniProt P28223); assay: Displacement of [3H]DOB from human 5-hydroxytryptamine 2A receptor
[2] = molecular target: T2, 5-hydroxytryptamine receptor 2C (Homo sapiens, UniProt P28335); assay: Binding affinity towards human 5-hydroxytryptamine 2C receptor.
T2 sequence (P28335 whole entry): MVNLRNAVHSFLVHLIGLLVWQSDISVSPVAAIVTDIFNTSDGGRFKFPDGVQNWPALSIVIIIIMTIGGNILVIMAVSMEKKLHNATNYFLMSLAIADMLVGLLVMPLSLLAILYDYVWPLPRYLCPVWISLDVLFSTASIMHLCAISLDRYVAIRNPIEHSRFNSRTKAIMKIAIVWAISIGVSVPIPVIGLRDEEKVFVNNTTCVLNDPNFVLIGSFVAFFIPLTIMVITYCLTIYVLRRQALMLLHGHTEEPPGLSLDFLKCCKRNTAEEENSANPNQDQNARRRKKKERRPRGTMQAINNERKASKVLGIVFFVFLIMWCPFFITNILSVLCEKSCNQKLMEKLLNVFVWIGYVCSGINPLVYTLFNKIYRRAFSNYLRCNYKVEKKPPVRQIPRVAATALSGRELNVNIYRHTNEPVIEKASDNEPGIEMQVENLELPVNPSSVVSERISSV

[3] = molecular target: T1, 5-hydroxytryptamine receptor 2A; assay: Displacement of [3H]ketanserin from human 5-hydroxytryptamine 2A receptor
[4] = molecular target: Serotonin 2 receptors; 5-HT2a & 5-HT2c (Homo sapiens) (UniProt P28223+P28335); assay: Relative affinity for human 5-HT2C and 5-HT2A receptors; type: protein assay
Sequence of Serotonin 2 receptors; 5-HT2a & 5-HT2c (Homo sapiens) (P28223 whole entry, looked up, one chain of several): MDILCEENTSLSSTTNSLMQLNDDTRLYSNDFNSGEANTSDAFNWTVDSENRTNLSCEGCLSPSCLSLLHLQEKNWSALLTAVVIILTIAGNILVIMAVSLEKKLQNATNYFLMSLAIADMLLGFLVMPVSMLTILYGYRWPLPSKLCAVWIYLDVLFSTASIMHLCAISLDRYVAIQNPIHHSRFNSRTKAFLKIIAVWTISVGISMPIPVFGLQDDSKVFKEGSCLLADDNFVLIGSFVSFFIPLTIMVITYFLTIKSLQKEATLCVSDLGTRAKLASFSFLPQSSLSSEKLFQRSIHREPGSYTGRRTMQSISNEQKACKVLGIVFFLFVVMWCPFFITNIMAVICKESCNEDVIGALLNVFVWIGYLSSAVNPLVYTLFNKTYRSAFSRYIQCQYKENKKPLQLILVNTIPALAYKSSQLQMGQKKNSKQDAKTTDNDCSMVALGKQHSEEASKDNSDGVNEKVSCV

[5] = molecular target: T1, 5-hydroxytryptamine receptor 2A; assay: Tested for binding affinity towards 5-hydroxytryptamine 2A receptor
[6] = molecular target: T2, 5-hydroxytryptamine receptor 2C; assay: Tested for binding affinity towards 5-HT2c receptor
[7] = molecular target: T3, 5-hydroxytryptamine receptor 2A (Rattus norvegicus, UniProt P14842); assay: Tested for binding affinity towards rat 5-hydroxytryptamine 2A receptor using [3H]ketanserin as radioligand
T3 sequence (P14842 whole entry): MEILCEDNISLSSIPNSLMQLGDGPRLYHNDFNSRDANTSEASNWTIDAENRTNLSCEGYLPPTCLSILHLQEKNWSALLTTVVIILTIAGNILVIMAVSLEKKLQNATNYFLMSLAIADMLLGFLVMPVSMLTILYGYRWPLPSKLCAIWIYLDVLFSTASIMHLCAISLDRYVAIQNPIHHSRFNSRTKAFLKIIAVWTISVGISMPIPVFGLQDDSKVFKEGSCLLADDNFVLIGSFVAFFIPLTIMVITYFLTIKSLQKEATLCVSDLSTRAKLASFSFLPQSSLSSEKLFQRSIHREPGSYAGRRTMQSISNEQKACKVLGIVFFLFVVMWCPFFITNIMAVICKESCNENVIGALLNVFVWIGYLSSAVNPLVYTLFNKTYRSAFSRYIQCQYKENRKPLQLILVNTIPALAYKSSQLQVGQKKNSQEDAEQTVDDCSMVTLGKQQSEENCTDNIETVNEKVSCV

[8] = molecular target: T2, 5-hydroxytryptamine receptor 2C; assay: Tested for binding affinity towards human 5-hydroxytryptamine 2C receptor using [3H]5-HT as radioligand
[9] = molecular target: T2, 5-hydroxytryptamine receptor 2C; assay: Tested for binding affinity towards human 5-hydroxytryptamine 2C receptor using [3H]DOB as radioligand
[10] = molecular target: T1, 5-hydroxytryptamine receptor 2A; assay: Tested for binding affinity towards human 5-hydroxytryptamine 2A receptor using [3H]5-HT as radioligand
[11] = molecular target: T3, 5-hydroxytryptamine receptor 2A; assay: Tested for binding affinity towards rat 5-hydroxytryptamine 2A receptor using [3H]DOB as radioligand
[12] = molecular target: T2, 5-hydroxytryptamine receptor 2C; assay: Tested for binding affinity towards human 5-hydroxytryptamine 2C receptor using [3H]mesulergine as radioligand
[13] = molecular target: T1, 5-hydroxytryptamine receptor 2A; assay: Tested for binding affinity towards human 5-hydroxytryptamine 2A receptor using [3H]DOB as radioligand

T1 sequence (P28223 whole entry): as the sequence (P28223 whole entry, looked up, one chain of several) above

Compound	Ki [1]	Ki [2]	Ki [3]	Selectivity [4]	also measured
COc1ccc2c(ccn2CCN(C)C)c1	> 10000 nM	> 10000 nM	> 10000 nM		
Clc1ccc2c(c1)cc1n2CCNC1	320 nM	1460 nM	1670 nM	4.6	
CC(N)Cc1c[nH]c2ccc3ccccc3c12 (stereo not given)		9 nM			Ki [5]: 3 nM
COc1ccc2c(c1)cc1n2CCNC1	930 nM	9930 nM	5830 nM	10.7	
COc1ccc2ccn(CCN(C)C)c2c1		490 nM	1040 nM		
c1ccc2c(c1)cc1n2CCNC1	635 nM	4780 nM	1040 nM	7.5	
COc1ccc2cc3n(c2c1)CCNC3	1300 nM	5160 nM	5190 nM	4	
CN(C)CCn1ccc2cc(F)c(F)cc21	230 nM	300 nM	640 nM	1.3	
Clc1cccc2cc3n(c12)CCNC3	330 nM	520 nM	630 nM	1.6	
CC(N)Cn1ccc2ccc3ccccc3c21 (stereo not given)		42 nM			Ki [5]: 38 nM
Cc1c2n(c3ccc(Cl)cc13)CCNC2			1250 nM		Ki [6]: 450 nM
COc1c2n(c3ccc(Cl)cc13)CCNC2	60 nM	330 nM	130 nM	5.5	
COc1cccc2cc3n(c12)CCNC3	300 nM	1990 nM	1000 nM	6.6	
c1ccc2c(c1)nc1n2CCNC1	> 10000 nM	> 10000 nM	> 10000 nM		
C[C@H](N)Cn1ccc2cc(F)c(F)cc21		85 nM		5.7	Ki [7]: 320 nM; Ki [8]: 3.8 nM; Ki [9]: 3.9 nM; Ki [10]: 12 nM; Ki [11]: 15 nM; Ki [12]: 85 nM; Ki [13]: 39 nM
CN(C)CCn1ccc2ccccc21	650 nM	720 nM	600 nM	1.1	
Clc1ccc2cc3n(c2c1)CCNC3	80 nM	560 nM	58 nM	7	
CC(CN)n1ccc2ccc3ccccc3c21 (stereo not given)		> 10000 nM			Ki [5]: 4300 nM
